Assay [1] can be described thus: Glycation inhibitory activity using L-arginine and glucose. It counts as biochemical. Conditions: 55 μg/ml; positive control; n=3. The method, then:
To confirm an antiglycation efficacy, glycation inhibitory activity was measured using L-arginine and glucose.
A solution of 1 M L-arginine and 1 M glucose in 1 M phosphate buffer (pH 7.4) was first prepared and diluted with 1 M phosphate buffer so that the concentration of the sample was 100 μg/ml, 1 M L-arginine and 1 M phosphate buffer were mixed in a ratio of 1:4, and 80 μl thereof was dispensed into each well of a 96-well plate. To this, each sample, which was diluted to 100 μg/ml, and 100 μl of 0.01 M aminoguanidine, which was used as a positive control, were added. After sufficiently mixing the sample, finally, glucose which was diluted with 1 M phosphate buffer so that the final concentration of glucose was 0.1 M was added and then reacted at 70° C. for four hours. In the 96-well plate, absorbance was measured at 420 nm using a spectrophotometer to measure a degree of glycation.
The glycation experimental group of Mathematical Formula 3 is an experimental group in which glycation was induced by adding 1 M L-arginine and 1 M glucose, and to measure the absorbance of a sample itself, absorbance was measured at 420 nm after adding only 1 M L-arginine and the sample and no glucose.
The glycation inhibitory activity can be calculated according to the following Mathematical Formula 3. Each group was tested three times, and an average value was obtained.

Another assay has as its system B-16 mouse melanoma cell. Description: Total melanin amount reduction. It counts as cell-based. As to conditions: 100 μg/ml, three days. The method, then:
Each of Examples 1 to 3 and Comparative Examples 1 to 3 was added to a mouse melanoma cell (B-16 mouse melanoma cell) culture medium, and a whitening effect thereof at the cellular level was tested.
Each extract was tested after being added to the culture medium at a final concentration of 100 μg/ml, and arbutin, which was a control, was added to the medium at a concentration of 100 μg/ml. B-16 melanoma cells were treated with the experimental group or the control and then cultured for three days.
Subsequently, the cultured cells were treated with trypsin, removed from the culture vessel, and then centrifuged to extract melanin. The removed cells were treated with 1 ml of a sodium hydroxide solution (1 N) and then boiled for 10 minutes to dissolve melanin, and absorbance was measured at 400 nm using a spectrophotometer to measure the amount of produced melanin.
The amount of melanin was measured as absorbance per unit cell number (10^6 cells), and a ratio thereof relative to the total melanin amount of the control was calculated as an inhibition rate (%), and the results are summarized in Table 4.

The test system of assay [2] is tyrosinase enzyme extracted from mushrooms. Description: Tyrosinase inhibition. It counts as biochemical. As to conditions: 52.8 μg/ml; positive control; n=3. The method, then: A tyrosinase enzyme extracted from mushrooms and commercially available from SIGMA was used. First, tyrosine, a substrate, was dissolved in distilled water to make a solution having a concentration of 0.3 mg/ml, 1.0 ml of the solution was input into each test tube, and 1.0 ml of a potassium-phosphate buffer solution (concentration: 0.1 mol, pH: 6.8) and 0.7 ml of distilled water were added thereto. 0.2 ml of a sample solution, which had been prepared by adding one of Examples 1 to 3 of the present invention and Comparative Examples 1 to 3 to an ethanol solution at a final concentration of 100 μg/ml, was added to a reaction solution and then reacted in a 37° C. thermostat for 10 minutes. In this case, a control was prepared by adding only 0.2 ml of an ethanol solution instead of the sample solution, and vitamin C was used as a positive control. After adding 0.1 ml of a 2,500 units/ml tyrosinase solution, the reaction solution was again reacted in a 37° C. thermostat for 10 minutes. The test tube containing the reaction solution was quenched by placing in ice water to stop the reaction, and absorbance was measured at a wavelength of 475 nm using a photoelectric spectrometer, and the results are shown in Table 3 below. The tyrosinase inhibitory effect of each sample was calculated according to the following Mathematical Formula 2.

In assay [3] the test system is human-derived fibroblasts. Description: Effect of increasing total collagen amount (PICP EIA kit). Conditions: 52.8 μg/ml; cultured one day; relative to control without additive; n=3. It counts as cell-based. The method, then: The Lilium hansonii extracts and the three types of Lilium genus plant extracts were added to a culture medium containing human-derived fibroblasts, and then their effects of increasing a total collagen amount at the cellular level were compared. The increased total collagen amount was quantified using a Procollagen Type I C-Peptide Enzyme ImmunoAssay kit (PICP EIA kit). […] After adding each sample to a culture medium containing human-derived fibroblasts and culturing for one day, the culture medium was collected and a degree of increase in a total collagen amount at each concentration was measured at 450 nm using a PICP EIA kit and a spectrophotometer. For the comparison of effects, a degree of increase in a total collagen amount was measured in the same manner for a fibroblast culture medium to which no sample was added (control) and a sample to which vitamin C was added at a final concentration of 52.8 μg/ml. The total collagen amount was measured as UV absorbance, and a rate of increase in the total collagen amount was calculated as a ratio of a total collagen amount relative to that of the control, and the results are summarized in Table 1 below.

Another assay deals with Human dermal fibroblasts. As to the kind of experiment: Hyaluronic acid synthesis promotion (Hyaluronan ELISA). It counts as cell-based. As to conditions: 10 ng/ml (10 ppb); positive control; 24 hours; control without additive = 100%. The method, then:
Human dermal fibroblasts were cultured at a concentration of 1×10^5 cells/mL in a DMEM medium containing 10% fetal bovine serum and, after dispensing 500 μl thereof into each well of a 24-well plate, cultured for 18 hours. Subsequently, each sample was diluted in a DMEM medium not containing fetal bovine serum, and each sample was added at various concentrations. As a positive control, an epidermal growth factor (EGF) known to promote hyaluronic acid production was treated at a concentration of 10 ppb. After culturing for 24 hours, a cell culture medium was recovered, and the concentration of hyaluronic acid was measured using a Hyaluronan ELISA kit (R&D Systems).
In addition, the hyaluronic acid concentration of each experimental group treated with each sample was quantified based on the hyaluronic acid concentration (100%) of a control not containing an additive, and the results are shown in the following Table 5.
In general terms: In an ELISA, binding on a coated surface is turned into a signal by an enzyme label.

As to `N=C(N)NN` [Aminoguanidine, aminoguanidine], the “Glycation inhibition rate (%)” value in assay [1] turned out to be 54.89%.

As usually defined, the inhibition is the change of the read-out against control, counted positive when it falls. Consider `OC[C@H]1O[C@@H](Oc2ccc(O)cc2)[C@H](O)[C@@H](O)[C@@H]1O` [Arbutin, arbutin], for which the “Total melanin amount (Abs)” value in the assay on B-16 mouse melanoma cell (absorbance at 400 nm per 10^6 cells, control 0.254) turned out to be 0.126 Abs. Besides, the inhibition at 100 µg/mL in the assay with B-16 mouse melanoma cell (Mus musculus, 72 h, relative to control, read-out: Inhibition rate (%) (total melanin)) came out at 50.4%.

With `O=C1O[C@H]([C@@H](O)CO)C(O)=C1O` [Vitamin C, vitamin C], the “Tyrosinase inhibition rate (%)” value in assay [2] turned out to be 50%. In addition, the “Collagen increase rate (%)” value in assay [3] is listed as 26%.

In the case of “EGF: epidermal growth factor known to promote hyaluronic acid production, positive control”, the “Hyaluronic acid (%)” value with Human dermal fibroblasts is given as 150.9%.

The values are drawn from patent US12514814B2, “Composition containing extract of Lilium hansonii leichtlin ex baker” (LG HOUSEHOLD & HEALTH CARE LTD., priority 2019, dated 2026).
